# According to paper PMC10895678 (Journal of Medicinal Chemistry, 2024):
# Values joined by “and” are separate entries in the source; they are usually repeats but may differ in a detail not shown here. Equal entries are not always repeated. Where two headings read alike, the source gives them in different places.
# How the values were obtained:
# M. bovis BCG = experiment: microbe, parasite or virus in culture; format: cell-based; settings: Mycobacterium tuberculosis variant bovis BCG, read-out: BCG MBC
# [1] = Mouse PK, combined (cassette) dosing of BGAz-001–005; format: in vivo, KM mice; parameters: AUMC(0-t) / VRT(0-t) / λz: unit not given here; settings: for AUC(0-t): read-out: AUC(0-t); for MRT last: read-out: MRT(0-t); for MRT inf: read-out: MRT(0-∞); for Vd/F: read-out: Vz/F
# Source text: Methods for combined single dosing (BGAz001–005) and dosing of single compounds multiple times (BGAz004 and BGAz005) are described in detail in the Supporting Information (PK Data).
# Report on PK Results of Combined Dosing with BGAz-001–005
# 1 Materials and instrument combined dosing
# An MS2 Turnover type oscillator was purchased from IKA Work’s Guangzhou (China), and a 5415R ChromatographicanalyseswereconductedusinganAgilent1290InfinityIIhighperformanceliquidchromatography andAgilentTechnologies6470TripleQuadLC/MS.Propranolol(≥90%inpurity,internalstandard,IS)waspurchased fromtheSigmaChemicalCo.(China).Formicacid(HPLCgrade)andmethanol(HPLCgrade)werepurchasedfrom DIKMACo.(China).Allchemicalsandsolventswereanalyticalgrade.WaterwaspurifiedusingaMillipore(AK,USA) laboratoryultra-purewatersystem(0.2μmfilter).
# KMmice,weighing25–35g(BeijingVitalRiverLaboratoryAnimalTechnologyCo.,Ltd.,China)wereutilisedforthe studies.The protocols were approved by the Animal Care and Use Committee, GIBH. Animals were maintained on standard animal chow and waterad libitum, in a climate-controlled room (23±1 °C 30–70% relative humidity, a minimumof tenexchangesof roomairperhouranda12hlight/darkcycle)foroneweekpriortoexperiments.
# 3 Pharmacokinetic studies
# Compounds BGAz-001 ，BGAz-002 ，BGAz-003 ，BGAz-004 and BGAz-005 were dissolved mixed in a solution containing DMSO (2%),ethanol (4%), Cremophor EL (4%) and ddH2O (90%); Pharmacokinetic propertiesof KM (male) were determined following IV, PO and IP administration. Animals were randomly distributed into three experimentalgroups(n=4).ThePOgroupwasgivenmixedsolutionwith5mg/kgbygastricgavage.TheIVgroup was dosed with mixed solution 1mg/kg byinjection into the tail vein. The IP group was dosed with mixed solution 1mg/kg by intraperitoneal injection. After single administration, whole blood samples (100 μL) were obtained from the orbital venousplexus atthe followingtime pointsafter dosing:5, 15,30 minand 1,3, 5,8, 24hour (PO and IP groups) and at the following time points after dosing 2, 10, 30min and 1, 3, 5, 8,24 hour (IV group). Wholeblood samples were collected in heparinised tubes. The plasma fraction was immediately separated by centrifugation. The micewerehumanelyeuthanasiabycarbondioxide24hoursafterexperimentwithoutpain.
# 4 Plasma sample and brain sample analysis
# 4.1 Standard curve sample preparation
# ThecompoundsweredissolvedinDMSO(2mg/mL)anddilutedwithtoseriesconcentration(methanol:H 2O,1:1,10 μL) and blank plasma (50 μL) were added to 1.5 mL tubes and vortexed for 3 min, then acetonitrile-containing internalstandard(150μL)wasaddedandvortexedforafurther5min,andsubsequentlyspuninacentrifugeat13000 […]
# 4.2 Plasma and preparation
# Plasmasampleswerepreparedusingaproteinprecipitationmethod.Solution(10μL,methanolH 2O,1:1)andplasma samples(50μL)wereaddedto1.5mLtubesandvortexfor3min,thenacetonitrile-containinginternalstandard(150 μL)wasaddedandvortexfor5min,andsubsequentlyspuninacentrifugeat13000× gfor40minat4°C.
# Aftercentrifugation,supernatant(100μL)wastransferto96wellplatesandanalysedbyLC-MS/MSusinganAgilent 1290InfinityIIHPLCandanAgilentTechnologies6470TripleQuadLC/MS.
# [2] = IP 1 mg/kg, cassette, mean of animals
# [3] = IV 1 mg/kg, cassette, mean of animals
# [4] = PO 5 mg/kg, cassette, mean of animals
# [5] = male, KM, mouse, plasma, IP 1 mg/kg, cassette
# [6] = male, KM, mouse, plasma, IP 1 mg/kg, cassette, mean of animals
# [7] = male, KM, mouse, plasma, IV 1 mg/kg, cassette
# [8] = male, KM, mouse, plasma, IV 1 mg/kg, cassette, mean of animals
# [9] = male, KM, mouse, plasma, PO 5 mg/kg, cassette
# [10] = male, KM, mouse, plasma, PO 5 mg/kg, cassette, mean of animals
smiles,measurement,setting,value
CNCC1CC(c2ccc(OC(F)(F)F)cc2)N1Cc1ccccc1OC(F)(F)F (stereo not shown) [BGAz-005],MBC,M. bovis BCG,12 to 25 µM
same,AUMC(0-t),[1]; [2],2746.024 **μg
same,AUMC(0-∞),[1]; [2],5711.413 **μg
same,CLz/F,[1]; [2],2.157 L/kg
same,C_last,[1]; [2],5.459 µg
same,R_AUC(t/∞),[1]; [2],83.575%
same,VRT(0-t),[1]; [2],43.817 ^2
same,VRT(0-∞),[1]; [2],202.71 ^2
same,λz,[1]; [2],0.079 1/
same,AUC(0-∞),"[1]; IP 1 mg/kg, cassette, summary table",464.151 µg·h
same,AUMC(0-t),[1]; [3],2221.012 **μg
same,AUMC(0-∞),[1]; [3],3469.367 **μg
same,CLz/F,[1]; [3],2.386 L/kg
same,C_last,[1]; [3],2.531 µg
same,R_AUC(t/∞),[1]; [3],91.7%
same,VRT(0-t),[1]; [3],45.323 ^2
same,VRT(0-∞),[1]; [3],139.16 ^2
same,Vz/F,[1]; [3],28.599 L/kg
same,λz,[1]; [3],0.098 1/
same,AUC(0-∞),"[1]; IV 1 mg/kg, cassette, summary table",424.729 µg·h
same,BA,"[1]; PO 5 mg/kg vs IV 1 mg/kg, cassette",72.63%
same,AUMC(0-t),[1]; [4],6391.819 **μg
same,AUMC(0-∞),[1]; [4],80528.925 **μg
same,CLz/F,[1]; [4],14.928 L/kg
same,C_last,[1]; [4],18.45 µg
same,R_AUC(t/∞),[1]; [4],55.825%
same,VRT(0-t),[1]; [4],47.178 ^2
same,VRT(0-∞),[1]; [4],2247.307 ^2
same,λz,[1]; [4],0.017 1/
same,AUC(0-∞),"[1]; PO 5 mg/kg, cassette, summary table",1542.381 µg·h
same,AUC(0-inf),"[1]; male, KM, mouse, plasma, ip, 1 mg/kg, IP 1 mg/kg, cassette, mean of animals, read-out: AUC(0-∞)",464 ng·h/mL
same,Cmax,"[1]; male, KM, mouse, plasma, ip, 1 mg/kg, IP 1 mg/kg, cassette, mean of animals, read-out: Cmax",41.9 ng/mL
same,Tmax,"[1]; male, KM, mouse, plasma, ip, 1 mg/kg, IP 1 mg/kg, cassette, mean of animals, read-out: Tmax",0.646 h
same,Cmax,"[1]; male, KM, mouse, plasma, ip, 1 mg/kg, IP 1 mg/kg, cassette, summary table, read-out: Cmax",41.9 ng/mL
same,half-life,"[1]; male, KM, mouse, plasma, ip, 1 mg/kg, IP 1 mg/kg, cassette, summary table, read-out: T1/2 (converted)",9.34 h
same,Tmax,"[1]; male, KM, mouse, plasma, ip, 1 mg/kg, IP 1 mg/kg, cassette, summary table, read-out: Tmax",0.646 h
same,AUC(0-inf),"[1]; male, KM, mouse, plasma, iv, 1 mg/kg, IV 1 mg/kg, cassette, mean of animals, read-out: AUC(0-∞)",425 ng·h/mL
same,Cmax,"[1]; male, KM, mouse, plasma, iv, 1 mg/kg, IV 1 mg/kg, cassette, mean of animals, read-out: Cmax",320 ng/mL
same,Tmax,"[1]; male, KM, mouse, plasma, iv, 1 mg/kg, IV 1 mg/kg, cassette, mean of animals, read-out: Tmax",0.033 h
same,Cmax,"[1]; male, KM, mouse, plasma, iv, 1 mg/kg, IV 1 mg/kg, cassette, summary table, read-out: Cmax",320 ng/mL
same,half-life,"[1]; male, KM, mouse, plasma, iv, 1 mg/kg, IV 1 mg/kg, cassette, summary table, read-out: T1/2 (converted)",8.05 h
same,Tmax,"[1]; male, KM, mouse, plasma, iv, 1 mg/kg, IV 1 mg/kg, cassette, summary table, read-out: Tmax",0.033 h
same,AUC(0-inf),"[1]; male, KM, mouse, plasma, po, 5 mg/kg, 5 mg/kg PO, cassette dosing, read-out: AUC0-inf",1540 ng·h/mL
same,Cmax,"[1]; male, KM, mouse, plasma, po, 5 mg/kg, 5 mg/kg PO, cassette dosing, read-out: Cmax (Mouse, P.O.)",43.1 ng/mL
same,half-life,"[1]; male, KM, mouse, plasma, po, 5 mg/kg, 5 mg/kg PO, cassette dosing, read-out: T1/2 (Mouse, P.O.) (converted)",35.7 h
same,Tmax,"[1]; male, KM, mouse, plasma, po, 5 mg/kg, 5 mg/kg PO, cassette dosing, read-out: Tmax (Mouse, P.O.)",6 h
same,AUC(0-inf),"[1]; male, KM, mouse, plasma, po, 5 mg/kg, PO 5 mg/kg, cassette, mean of animals, read-out: AUC(0-∞)",1540 ng·h/mL
same,Cmax,"[1]; male, KM, mouse, plasma, po, 5 mg/kg, PO 5 mg/kg, cassette, mean of animals, read-out: Cmax",43.1 ng/mL
same,Tmax,"[1]; male, KM, mouse, plasma, po, 5 mg/kg, PO 5 mg/kg, cassette, mean of animals, read-out: Tmax",6 h
same,Cmax,"[1]; male, KM, mouse, plasma, po, 5 mg/kg, PO 5 mg/kg, cassette, summary table, read-out: Cmax",43.1 ng/mL
same,half-life,"[1]; male, KM, mouse, plasma, po, 5 mg/kg, PO 5 mg/kg, cassette, summary table, read-out: T1/2 (converted)",35.7 h
same,Tmax,"[1]; male, KM, mouse, plasma, po, 5 mg/kg, PO 5 mg/kg, cassette, summary table, read-out: Tmax",6 h
same,concentration at 0.083 h,[1]; [5],27 ng/mL and 60 nM
same,concentration at 0.25 h,[1]; [5],70 nM and 29.8 ng/mL
same,concentration at 0.5 h,[1]; [5],80 nM and 36.3 ng/mL
same,concentration at 1 h,[1]; [5],90 nM and 39.8 ng/mL
same,concentration at 3 h,[1]; [5],80 nM and 33.4 ng/mL
same,concentration at 5 h,[1]; [5],50 nM and 21.3 ng/mL
same,concentration at 8 h,[1]; [5],40 nM and 15.4 ng/mL
same,concentration at 24 h,[1]; [5],10 nM and 5.44 ng/mL
same,AUC(0-t),[1]; [6],388 ng·h/mL
same,MRT last,[1]; [6],7.13 h
same,MRT inf,[1]; [6],12.3 h
same,Vd/F,[1]; [6],28.9 L/kg
same,concentration at 0.033 h,"[1]; male, KM, mouse, plasma, IV 1 mg/kg, cassette, 0.033 h",320 ng/mL and 740 nM
same,concentration at 0.167 h,"[1]; male, KM, mouse, plasma, IV 1 mg/kg, cassette, 0.167 h",330 nM and 145 ng/mL
same,concentration at 0.5 h,[1]; [7],170 nM and 75.2 ng/mL
same,concentration at 1 h,[1]; [7],120 nM and 50.1 ng/mL
same,concentration at 3 h,[1]; [7],60 nM and 25.4 ng/mL
same,concentration at 5 h,[1]; [7],40 nM and 16.1 ng/mL
same,concentration at 8 h,[1]; [7],20 nM and 10.3 ng/mL
same,concentration at 24 h,[1]; [7],10 nM and 5.2 ng/mL
same,C0,[1]; [8],392 ng/mL
same,AUC(0-t),[1]; [8],392 ng·h/mL
same,MRT last,[1]; [8],5.5 h
same,MRT inf,[1]; [8],8.24 h
same,concentration at 0.083 h,[1]; [9],7.08 ng/mL and 20 nM
same,concentration at 0.25 h,[1]; [9],30 nM and 11.3 ng/mL
same,concentration at 0.5 h,[1]; [9],50 nM and 20.4 ng/mL
same,concentration at 1 h,[1]; [9],70 nM and 32.5 ng/mL
same,concentration at 3 h,[1]; [9],90 nM and 39.1 ng/mL
same,concentration at 5 h,[1]; [9],90 nM and 37.6 ng/mL
same,concentration at 8 h,[1]; [9],90 nM and 40.2 ng/mL
same,concentration at 24 h,[1]; [9],60 nM and 24.3 ng/mL
same,AUC(0-t),[1]; [10],621 ng·h/mL
same,MRT last,[1]; [10],8.45 h
same,MRT inf,[1]; [10],38.7 h
same,Vd/F,[1]; [10],129 L/kg
